# Like-named read-outs stand apart in the source and are kept apart here.
# Key:
# [1] = tested on: HuH7 cell line (FGF19 amplification); assay: Cancer cell line cell viability assay (Cell Titer-Glo), 120 hr; format: cell-based; details: Homo sapiens, Huh-7
# From the text: Experimental Purpose: To detect the change of intracellular ATP by Cell Titer-Glo® and to evaluate the inhibitory effect of the compounds on cancer cell lines by determining the in vitro IC50 value of the compounds.
# Cell Titer-Glo® 2.0 Luminescent cell viability assay reagent was purchased from Promega (Madison, WI). KG-1, KATO-III, and MDA-MB-453 cell lines were purchased from American Type Culture Collection (Manassas, VA). RT112/84 cell line was purchased from Millipore-Sigma (St. Louis, MO). HuH7 cells were purchased from Seikisui Xenotech (Kansas City, KS). RT112/84 and MDA-MB-453 cells were cultured in RPMI1640 media supplemented with 10% fetal bovine serum. KG-1 and KATO-III cell lines were cultured in IMDM media supplemented with 20% FBS. HuH7 cells were cultured in IMDM media supplemented with 10% FBS. Cultures were maintained at 37° C. in a humidified atmosphere of 5% CO2 and 95% air.
# Cell Viability Assay Procedure: Cells were plated in 96-well clear bottom/white plates (Corning #3903) at a range of densities depending on the optimal assay window (5,000-20,000 cells/well in […] of media), incubated overnight. The next day, test compound DMSO stock solutions were made at 10 mM and […] final concentration. Compounds were then added to cells in a 9-dose, 4-fold dilution series starting at 3 μM with an HP 300e Digital Dispenser (each dose was applied in triplicate). DMSO was backfilled to each well up to 301 nL total volume of test compound+DMSO, and a total of 301 nL DMSO was added to a control/no test compound well in triplicate. The cells in cell culture plates were incubated with the compounds at 37° C. and 5% CO2 for 72 hours-120 hours depending on the cell line. Then 50 μl of Cell Titer Glo 2.0 reagent was added to each well of the cell culture plates. The contents were covered from light and mixed on an orbital shaker at room temperature for minimum of 10 min. Luminescence was recorded by a Clariostar Plus Microplate Reader (BMG Labtech, Cary, NC). Cells were assessed as a percentage of DMSO only treated control cells. Curves were plotted and IC50 values were calculated using the GraphPad Prism 9 program based on a sigmoidal dose-response equation (log (inhibitor) vs. response—Variable slope, 4-parameter).
# FGFR2 = molecular target: T1, FGFR2 (Homo sapiens, UniProt P21802); assay: Kinase binding assay (kinase-tagged T7 phage, affinity beads, qPCR), Kd; details: read-out: FGFR2 (Kd nM)
# T1 construct: made in house; host or cells: E. coli (BL21-derived), T7 phage
# Procedure, shortened: (§1)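 Competition binding; kinase-tagged T7 phage lysate vs immobilised biotinylated ligand on streptavidin beads, 0.9% DMSO final. 11-pt 3-fold dilutions, 3 DMSO controls. qPCR of eluted kinase; Kd by Hill fit, slope −1.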
# FGFR4 = molecular target: T2, FGFR4 (Homo sapiens, UniProt P22455); assay: as above; details: read-out: FGFR4 (Kd nM)
# T2 construct: made in house; host or cells: E. coli (BL21-derived), T7 phage
# Procedure, shortened: as §1
# FGFR3 = molecular target: T3, FGFR3 (Homo sapiens, UniProt P22607); assay: as above; details: read-out: FGFR3 (Kd nM)
# T3 construct: made in house; host or cells: E. coli (BL21-derived), T7 phage
# Procedure, shortened: as §1
# FGFR3 (V555M) = molecular target: T4, FGFR3 (V555M) (Homo sapiens, UniProt P22607, V555M); assay: as above; details: V555M mutant; read-out: FGFR3 (V555M) (Kd nM)
# T4 construct: made in house; host or cells: E. coli (BL21-derived), T7 phage
# Procedure, shortened: as §1
# FGFR1 = molecular target: T5, FGFR1 (Homo sapiens, UniProt P11362); assay: as above; details: read-out: FGFR1 (Kd nM)
# T5 construct: made in house; host or cells: E. coli (BL21-derived), T7 phage
# Procedure, shortened: as §1
# [2] = kinase binding assay, 11-point 3-fold dilution series
# T4 sequence (P22607 23-806 V555M): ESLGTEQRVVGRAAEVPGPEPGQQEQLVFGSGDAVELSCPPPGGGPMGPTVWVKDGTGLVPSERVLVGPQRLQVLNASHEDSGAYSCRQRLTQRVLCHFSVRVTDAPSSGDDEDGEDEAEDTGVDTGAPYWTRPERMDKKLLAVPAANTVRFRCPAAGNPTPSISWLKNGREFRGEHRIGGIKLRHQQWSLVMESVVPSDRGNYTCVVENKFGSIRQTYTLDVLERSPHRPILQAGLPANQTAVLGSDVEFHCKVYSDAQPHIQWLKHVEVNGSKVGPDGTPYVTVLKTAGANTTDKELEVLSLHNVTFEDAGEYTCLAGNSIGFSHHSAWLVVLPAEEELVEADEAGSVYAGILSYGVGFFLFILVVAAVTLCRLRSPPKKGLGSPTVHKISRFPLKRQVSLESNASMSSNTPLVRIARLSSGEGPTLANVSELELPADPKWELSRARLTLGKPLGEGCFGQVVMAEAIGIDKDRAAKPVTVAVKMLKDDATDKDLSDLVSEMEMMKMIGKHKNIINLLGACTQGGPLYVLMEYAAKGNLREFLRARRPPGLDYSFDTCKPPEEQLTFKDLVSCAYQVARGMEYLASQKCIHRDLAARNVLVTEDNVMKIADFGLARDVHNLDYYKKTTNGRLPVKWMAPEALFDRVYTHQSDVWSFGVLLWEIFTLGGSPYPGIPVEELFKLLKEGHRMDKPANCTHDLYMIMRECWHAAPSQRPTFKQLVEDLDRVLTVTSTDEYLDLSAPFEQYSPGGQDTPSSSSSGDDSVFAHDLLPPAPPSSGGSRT
# T1 sequence (P21802 22-821): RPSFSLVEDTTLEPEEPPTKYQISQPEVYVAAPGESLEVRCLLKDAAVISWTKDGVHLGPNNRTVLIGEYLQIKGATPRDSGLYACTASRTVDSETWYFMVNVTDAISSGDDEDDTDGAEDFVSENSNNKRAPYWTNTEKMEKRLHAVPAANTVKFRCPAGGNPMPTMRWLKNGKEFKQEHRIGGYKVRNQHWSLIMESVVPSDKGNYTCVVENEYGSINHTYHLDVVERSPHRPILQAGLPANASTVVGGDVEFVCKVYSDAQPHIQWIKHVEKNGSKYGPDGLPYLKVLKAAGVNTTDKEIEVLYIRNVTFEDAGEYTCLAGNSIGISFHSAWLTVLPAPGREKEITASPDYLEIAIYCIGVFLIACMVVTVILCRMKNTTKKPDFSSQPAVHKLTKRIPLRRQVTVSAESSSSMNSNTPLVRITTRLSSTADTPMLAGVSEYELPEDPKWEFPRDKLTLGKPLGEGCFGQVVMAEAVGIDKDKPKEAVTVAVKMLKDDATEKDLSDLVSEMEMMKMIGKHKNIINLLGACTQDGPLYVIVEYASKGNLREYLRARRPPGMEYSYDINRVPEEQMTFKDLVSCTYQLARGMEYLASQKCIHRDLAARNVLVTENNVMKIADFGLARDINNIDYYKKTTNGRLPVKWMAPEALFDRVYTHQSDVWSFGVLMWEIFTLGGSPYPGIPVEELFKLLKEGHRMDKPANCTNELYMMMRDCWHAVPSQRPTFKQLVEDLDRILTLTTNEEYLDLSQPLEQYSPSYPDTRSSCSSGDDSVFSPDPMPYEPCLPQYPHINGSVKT
# T3 sequence (P22607 23-806): as the sequence (P22607 23-806 V555M) above, with M533V counted along it
# T2 sequence (P22455 22-802): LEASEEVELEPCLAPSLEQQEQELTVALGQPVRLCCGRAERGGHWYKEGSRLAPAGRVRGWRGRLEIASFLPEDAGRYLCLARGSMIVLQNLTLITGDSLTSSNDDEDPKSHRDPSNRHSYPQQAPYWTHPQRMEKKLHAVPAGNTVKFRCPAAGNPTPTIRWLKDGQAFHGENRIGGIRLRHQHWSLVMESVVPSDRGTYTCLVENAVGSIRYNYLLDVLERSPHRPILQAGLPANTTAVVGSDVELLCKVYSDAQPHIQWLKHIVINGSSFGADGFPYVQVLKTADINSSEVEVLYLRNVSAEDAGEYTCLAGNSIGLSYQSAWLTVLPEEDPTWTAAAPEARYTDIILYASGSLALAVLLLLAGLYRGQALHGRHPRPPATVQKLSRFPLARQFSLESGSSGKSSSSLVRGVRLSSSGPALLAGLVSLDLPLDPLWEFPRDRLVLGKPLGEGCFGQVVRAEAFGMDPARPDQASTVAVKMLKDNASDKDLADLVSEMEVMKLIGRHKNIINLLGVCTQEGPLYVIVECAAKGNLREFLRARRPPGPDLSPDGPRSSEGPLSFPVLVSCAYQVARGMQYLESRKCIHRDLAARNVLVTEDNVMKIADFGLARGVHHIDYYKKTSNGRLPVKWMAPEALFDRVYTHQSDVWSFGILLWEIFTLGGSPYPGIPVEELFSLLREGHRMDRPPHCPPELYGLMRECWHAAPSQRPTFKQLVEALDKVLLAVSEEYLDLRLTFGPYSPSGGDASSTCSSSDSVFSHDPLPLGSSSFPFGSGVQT
# T5 sequence (P11362 22-822): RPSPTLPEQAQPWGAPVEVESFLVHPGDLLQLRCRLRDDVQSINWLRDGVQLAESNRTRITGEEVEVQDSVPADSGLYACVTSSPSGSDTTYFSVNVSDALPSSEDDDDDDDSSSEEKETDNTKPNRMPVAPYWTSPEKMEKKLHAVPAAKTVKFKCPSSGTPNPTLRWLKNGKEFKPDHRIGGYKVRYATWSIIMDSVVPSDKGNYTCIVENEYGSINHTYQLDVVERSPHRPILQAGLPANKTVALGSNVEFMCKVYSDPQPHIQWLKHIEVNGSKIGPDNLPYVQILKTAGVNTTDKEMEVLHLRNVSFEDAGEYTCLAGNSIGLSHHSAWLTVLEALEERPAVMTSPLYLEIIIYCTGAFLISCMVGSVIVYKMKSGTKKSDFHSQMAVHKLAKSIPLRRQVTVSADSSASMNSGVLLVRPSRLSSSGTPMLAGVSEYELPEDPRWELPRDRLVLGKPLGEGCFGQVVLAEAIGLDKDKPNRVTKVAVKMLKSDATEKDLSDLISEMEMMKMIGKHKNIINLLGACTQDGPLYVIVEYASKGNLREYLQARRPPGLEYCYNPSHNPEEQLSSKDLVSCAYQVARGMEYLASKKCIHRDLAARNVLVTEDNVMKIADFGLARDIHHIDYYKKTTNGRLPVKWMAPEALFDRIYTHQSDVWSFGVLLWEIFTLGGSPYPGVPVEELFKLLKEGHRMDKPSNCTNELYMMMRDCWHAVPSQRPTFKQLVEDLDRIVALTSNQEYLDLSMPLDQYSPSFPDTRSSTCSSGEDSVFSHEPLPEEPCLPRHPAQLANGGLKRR
Compound,IC50 [1],Kd (FGFR2),Kd (FGFR4),Kd (FGFR3),Kd (FGFR3 (V555M)),Kd (FGFR1),Kd (FGFR2; [2]),Kd (FGFR4; [2]),Kd (FGFR3; [2]),Kd (FGFR1; [2])
"Cc1ncc(Cl)c([C@@H](C)Oc2ccc3[nH]nc(-c4cnc(N5CC(C)(OC(C)C)C5)c(C#N)c4)c3c2)c1Cl [Example 13, 5-[5-[(1R)-1-(3,5-dichloro-2-methyl-4-pyridyl)ethoxy]-1H-indazol-3-yl]-2-(3-isopropoxy-3-methyl-azetidin-1-yl)pyridine-3-carbonitrile]",200 to 1000 nM,> 1000 nM,1 to 50 nM,50 to 300 nM,50 to 300 nM,> 1000 nM,,,,
"C[C@@H](Oc1ccc2[nH]nc(-c3cnc(N4CC(C)(N(C)C)C4)c(C#N)c3)c2c1)c1c(Cl)cncc1Cl [Example 29, (R)-5-(5-(1-(3,5-dichloropyridin-4-yl)ethoxy)-1H-indazol-3-yl)-2-(3-(dimethylamino)-3-methylazetidin-1-yl)nicotinonitrile]",50 to 200 nM,50 to 300 nM,1 to 50 nM,1 to 50 nM,1 to 50 nM,50 to 300 nM,,,,
"CCN(CC)C1(C)CN(c2ncc(-c3n[nH]c4ccc(O[C@H](C)c5c(Cl)cncc5Cl)cc34)cc2C#N)C1 [Example 31, 5-[5-[(1R)-1-(3,5-dichloro-4-pyridyl)ethoxy]-1H-indazol-3-yl]-2-[3-(diethylamino)-3-methyl-azetidin-1-yl]pyridine-3-carbonitrile]",50 to 200 nM,50 to 300 nM,1 to 50 nM,1 to 50 nM,1 to 50 nM,1 to 50 nM,,,,
"CNC1(C)CN(c2ncc(-c3n[nH]c4ccc(O[C@H](C)c5c(Cl)cnc(C)c5Cl)cc34)cc2C#N)C1 [Example 32, 5-[5-[(1R)-1-(3,5-dichloro-2-methyl-4-pyridyl)ethoxy]-1H-indazol-3-yl]-2-[3-methyl-3-(methylamino)azetidin-1-yl]pyridine-3-carbonitrile]",50 to 200 nM,50 to 300 nM,1 to 50 nM,1 to 50 nM,1 to 50 nM,1 to 50 nM,,,,
"CCN(CC)C1(C)CN(c2ncc(-c3n[nH]c4ccc(O[C@H](C)c5c(Cl)cnc(C)c5Cl)cc34)cc2C#N)C1 [Example 36, 5-[5-[(1R)-1-(3,5-dichloro-2-methyl-4-pyridyl)ethoxy]-1H-indazol-3-yl]-2-[3-(diethylamino)-3-methyl-azetidin-1-yl]pyridine-3-carbonitrile]",200 to 1000 nM,50 to 300 nM,1 to 50 nM,1 to 50 nM,1 to 50 nM,50 to 300 nM,,,,
"COc1cc2[nH]nc(-c3cnc(N4CC[C@@](C)(NCC5CC5)C4)c(C#N)c3)c2cc1O[C@H](C)c1c(Cl)cncc1Cl [Example 409, 2-((R)-3-((cyclo-propylmethyl)-amino)-3-methylpyrrolidin-1-yl)-5-(5-((R)-1-(3,5-dichloropyridin-4-yl)ethoxy)-6-methoxy-1H-indazol-3-yl)nicotinonitrile]",0.1 to 50 nM,,,,,,1 to 50 nM,1 to 50 nM,1 to 50 nM,1 to 50 nM
"COc1cc2[nH]nc(-c3cnc(N4CC[C@](C)(NCC5CC5)C4)c(C#N)c3)c2cc1O[C@H](C)c1c(Cl)cncc1Cl [Example 410, 2-((S)-3-((cyclopropyl-methyl)-amino)-3-methylpyrrolidin-1-yl)-5-(5-((R)-1-(3,5-dichloropyridin-4-yl)ethoxy)-6-methoxy-1H-indazol-3-yl)nicotinonitrile]",0.1 to 50 nM,,,,,,1 to 50 nM,1 to 50 nM,1 to 50 nM,1 to 50 nM

# Now from value to molecule:
IC50 [1],Kd (FGFR2),Kd (FGFR4),Kd (FGFR3),Kd (FGFR3 (V555M)),Kd (FGFR1),Kd (FGFR2; [2]),Kd (FGFR4; [2]),Kd (FGFR3; [2]),Kd (FGFR1; [2]),Compound
0.1 to 50 nM,1 to 50 nM,1 to 50 nM,1 to 50 nM,1 to 50 nM,1 to 50 nM,,,,,"COc1cc2[nH]nc(-c3cnc(N4CC(C)(N(C)C)C4)c(S(C)(=O)=O)c3)c2cc1O[C@H](C)c1c(Cl)cncc1Cl [Example 1, (R)-1-(5-(5-(1-(3,5-dichloropyridin-4-yl)ethoxy)-6-methoxy-1H-indazol-3-y1)-3-(methylsulfonyl)pyridin-2-yl)-N,N,3-trimethylazetidin-3-amine]"
0.1 to 50 nM,1 to 50 nM,1 to 50 nM,1 to 50 nM,1 to 50 nM,50 to 300 nM,,,,,"C[C@@H](Oc1cc2c(-c3cnc(N4CC(C)(CP(C)(C)=O)C4)c(C#N)c3)n[nH]c2cc1F)c1c(Cl)cncc1Cl [Example 11, (R)-5-(5-(1-(3,5-dichloropyridin-4-yl)ethoxy)-6-fluoro-1H-indazol-3-yl)-2-(3-((dimethylphosphoryl)methyl)-3-methylazetidin-1-yl)nicotinonitrile]"
0.1 to 50 nM,1 to 50 nM,1 to 50 nM,1 to 50 nM,1 to 50 nM,1 to 50 nM,,,,,"COc1cc2[nH]nc(-c3cnc(N4CC(C)(NC5CCC5)C4)c(C#N)c3)c2cc1O[C@H](C)c1c(Cl)cncc1Cl [Example 12, (R)-2-(3-(cyclobutylamino)-3-methylazetidin-1-yl)-5-(5-(1-(3,5-dichloropyridin-4-yl)ethoxy)-6-methoxy-1H-indazol-3-yl)nicotinonitrile]"
0.1 to 50 nM,50 to 300 nM,1 to 50 nM,1 to 50 nM,1 to 50 nM,50 to 300 nM,,,,,"C[C@@H](Oc1ccc2[nH]nc(-c3cnc(N4CC(C)(CNS(C)(=O)=O)C4)c(C#N)c3)c2c1)c1c(Cl)cncc1Cl [Example 18, (R)-N-((1-(3-cyano-5-(5-(1-(3,5-dichloropyridin-4-yl)ethoxy)-1H-indazol-3-yl)pyridin-2-yl)-3-methylazetidin-3-yl)methyl)methane-sulfonamide]"
0.1 to 50 nM,1 to 50 nM,1 to 50 nM,1 to 50 nM,1 to 50 nM,1 to 50 nM,,,,,"Cc1ncc(Cl)c([C@@H](C)Oc2ccc3[nH]nc(-c4cnc(N5CC(C)(NC6COC6)C5)c(C#N)c4)c3c2)c1Cl [Example 30, 5-[5-[(1R)-1-(3,5-dichloro-2-methyl-4-pyridyl)ethoxy]-1H-indazol-3-yl]-2-[3-methyl-3-(oxetan-3-ylamino)azetidin-1-yl]pyridine-3-carbonitrile]"
0.1 to 50 nM,1 to 50 nM,1 to 50 nM,1 to 50 nM,1 to 50 nM,1 to 50 nM,,,,,"CCNC1(C)CN(c2ncc(-c3n[nH]c4ccc(O[C@H](C)c5c(Cl)cncc5Cl)cc34)cc2C#N)C1 [Example 35, (R)-5-(5-(1-(3,5-dichloropyridin-4-yl)ethoxy)-1H-indazol-3-yl)-2-(3-(ethylamino)-3-methylazetidin-1-yl)nicotinonitrile]"
0.1 to 50 nM,1 to 50 nM,1 to 50 nM,1 to 50 nM,,1 to 50 nM,,,,,"COc1cc2[nH]nc(-c3cnc(N4CC(N)(Cc5ccn(C)n5)C4)c(C#N)c3)c2cc1O[C@H](C)c1c(Cl)cncc1Cl [Example 366, (R)-2-(3-amino-3-((1-methyl-1H-pyrazol-3-yl)methyl)azetidin-1-yl)-5-(5-(1-(3,5-dichloropyridin-4-yl)ethoxy)-6-methoxy-1H-indazol-3-yl)nicotinonitrile]"
0.1 to 50 nM,1 to 50 nM,1 to 50 nM,1 to 50 nM,,1 to 50 nM,,,,,"COc1cc2[nH]nc(-c3cnc(N4CCC(C)(N)CC4)c(C#N)c3)c2cc1O[C@H](C)c1c(Cl)cncc1Cl [Example 368, (R)-2-(4-amino-4-methylpiperidin-1-yl)-5-(5-(1-(3,5-dichloropyridin-4-yl)ethoxy)-6-methoxy-1H-indazol-3-yl)nicotinonitrile]"
0.1 to 50 nM,1 to 50 nM,1 to 50 nM,1 to 50 nM,,1 to 50 nM,,,,,"COc1cc2[nH]nc(-c3cnc(N4CC(C)(O)C4)c(C#N)c3)c2cc1O[C@H](C)c1c(Cl)cncc1Cl [Example 370, 5-[5-[(1R)-1-(3,5-dichloro-4-pyridyl)ethoxy]-6-methoxy-1H-indazol-3-yl]-2-(3-hydroxy-3-methyl-azetidin-1-yl)pyridine-3-carbonitrile]"

# — patent publication US20250368666A1, “INDAZOLE COMPOUNDS” (TYRA BIOSCIENCES, INC., priority 2022, published 2025)
